Data taken from the NIST ThermoML archive (doi:10.1021/je7001623).
Numbers after ± are expanded uncertainties.

Conditions: 101.33 kPa, Liquid; for mass density: Vibrating tube method; for viscosity: surface light scattering

Compound `CC(C)CCCCCCCOC(=O)c1ccccc1C(=O)OCCCCCCCC(C)C` has a mass density (273.14 K) of 980.74 ± 0.4 kg/m3, a mass density (278.15 K) of 977.13 ± 0.39 kg/m3 and a mass density (283.15 K) of 973.51 ± 0.39 kg/m3. For the same compound, the viscosity (283.15 K) was 265.6 ± 8.2 mPa·s, the mass density (288.15 K) was 969.94 ± 0.39 kg/m3 and the viscosity (288.15 K) was 177.4 ± 5.7 mPa·s. It also gave a mass density (293.15 K) of 966.43 ± 0.39 kg/m3, a viscosity (293.15 K) of 123.8 ± 3.9 mPa·s and a viscosity (298.15 K) of 88.44 ± 2.7 mPa·s. For the same compound, the mass density (298.16 K) was 962.9 ± 0.39 kg/m3, the viscosity (303.15 K) was 64.84 ± 2 mPa·s and the mass density (303.16 K) was 959.36 ± 0.39 kg/m3. It also gave a viscosity (308.15 K) of 48.98 ± 1.5 mPa·s, a mass density (308.16 K) of 955.81 ± 0.39 kg/m3 and a viscosity (313.15 K) of 38.01 ± 1.1 mPa·s. The mass density (313.16 K) was 952.27 ± 0.39 kg/m3, the mass density (318.16 K) was 948.73 ± 0.38 kg/m3 and the mass density (323.16 K) was 945.19 ± 0.38 kg/m3. It also gave a mass density (328.16 K) of 941.65 ± 0.38 kg/m3, a mass density (333.16 K) of 938.12 ± 0.38 kg/m3 and a mass density (338.16 K) of 934.6 ± 0.38 kg/m3. For the same compound, the mass density (348.15 K) was 927.54 ± 0.38 kg/m3, the mass density (353.15 K) was 924.02 ± 0.38 kg/m3 and the mass density (358.15 K) was 920.5 ± 0.38 kg/m3. For the same compound, the mass density (363.15 K) was 916.95 ± 0.37 kg/m3.
